{"source": "ChEMBL document CHEMBL4610123", "about": "“Structure-Based Drug Discovery of N-((R)-3-(7-Methyl-1H-indazol-5-yl)-1-oxo-1-(((S)-1-oxo-3-(piperidin-4-yl)-1-(4-(pyridin-4-yl)piperazin-1-yl)propan-2-yl)amino)propan-2-yl)-2'-oxo-1',2'-dihydrospiro[piperidine-4,4'-pyrido[2,3-d][1,3]oxazine]-1-carboxamide (HTL22562): A Calcitonin Gene-Related …” (J Med Chem, 2020)", "key": {"[1]": {"experiment": "Protein binding in cynomolgus monkey plasma by high-throughput dialysis method", "format": "ADME, cell-free, Macaca fascicularis", "settings": "read-out: PPB (converted)"}, "hERG (KCNH2)": {"target": "hERG (KCNH2) (Homo sapiens, UniProt Q12809)", "sequence (Q12809 whole entry)": "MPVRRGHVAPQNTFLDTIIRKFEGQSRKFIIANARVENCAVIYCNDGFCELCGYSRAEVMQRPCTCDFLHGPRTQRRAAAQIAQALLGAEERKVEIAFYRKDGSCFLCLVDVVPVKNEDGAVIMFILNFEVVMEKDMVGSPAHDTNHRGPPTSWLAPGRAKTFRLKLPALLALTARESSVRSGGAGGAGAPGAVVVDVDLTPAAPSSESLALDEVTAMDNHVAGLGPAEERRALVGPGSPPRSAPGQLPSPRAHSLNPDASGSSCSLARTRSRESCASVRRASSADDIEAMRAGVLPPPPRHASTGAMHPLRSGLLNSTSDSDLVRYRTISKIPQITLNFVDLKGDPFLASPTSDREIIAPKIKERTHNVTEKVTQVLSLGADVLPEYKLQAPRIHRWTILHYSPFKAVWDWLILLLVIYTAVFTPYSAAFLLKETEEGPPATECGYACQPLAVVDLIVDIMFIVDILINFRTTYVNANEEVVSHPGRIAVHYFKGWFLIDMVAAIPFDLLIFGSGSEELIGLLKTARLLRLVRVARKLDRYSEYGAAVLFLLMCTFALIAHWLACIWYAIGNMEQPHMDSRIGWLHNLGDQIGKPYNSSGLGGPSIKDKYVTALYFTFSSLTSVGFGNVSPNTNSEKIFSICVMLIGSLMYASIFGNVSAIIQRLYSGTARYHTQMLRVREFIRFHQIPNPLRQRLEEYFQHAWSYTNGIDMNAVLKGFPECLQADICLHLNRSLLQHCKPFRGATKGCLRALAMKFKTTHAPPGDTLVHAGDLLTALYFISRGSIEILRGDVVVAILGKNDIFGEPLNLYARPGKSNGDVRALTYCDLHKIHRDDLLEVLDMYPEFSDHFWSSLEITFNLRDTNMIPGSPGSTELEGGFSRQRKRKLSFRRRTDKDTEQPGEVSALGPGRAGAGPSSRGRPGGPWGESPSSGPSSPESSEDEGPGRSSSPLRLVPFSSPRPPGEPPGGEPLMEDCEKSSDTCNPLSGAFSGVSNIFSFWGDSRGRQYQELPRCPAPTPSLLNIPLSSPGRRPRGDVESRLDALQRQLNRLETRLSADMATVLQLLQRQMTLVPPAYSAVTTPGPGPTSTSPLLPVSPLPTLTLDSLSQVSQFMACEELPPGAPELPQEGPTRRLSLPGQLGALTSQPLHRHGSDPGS", "experiment": "Inhibition of human ERG at 300 uM relative to control"}, "[2]": {"experiment": "AUC (infinity) in cynomolgus monkey at 0.013 mg/kg, sc", "format": "ADME, organism-based, Macaca fascicularis", "set-up": "dose 0.013 mg/kg, route subcutaneous, time infinity", "settings": "in vivo"}, "[3]": {"experiment": "Half life in cynomolgus monkey hepatocytes", "format": "ADME, cell-based, Macaca fascicularis, Hepatocyte"}, "[4]": {"experiment": "Volume of distribution at steady state in dog at 0.5 mg/kg, iv", "format": "ADME, organism-based, Canis lupus familiaris", "settings": "in vivo, read-out: Vdss"}, "[5]": {"experiment": "Stability of the compound in pH 5.5 solution at 50 degC assessed as loss of purity after 1 week", "format": "physicochemical", "settings": "read-out: Drug degradation"}, "[6]": {"target": "Calcitonin-gene-related peptide receptor; CALCRL/RAMP1 (Rattus norvegicus) (UniProt Q63118+Q9JJ74)", "experiment": "Antagonist activity at rat CGRP receptor", "format": "protein-complex assay"}, "[7]": {"experiment": "Tmax in cynomolgus monkey at 0.013 mg/kg, sc", "format": "ADME, organism-based, Macaca fascicularis", "settings": "in vivo"}, "[8]": {"experiment": "Oral bioavailability in cynomolgus monkey at 0.013 mg/kg", "format": "ADME, organism-based, Macaca fascicularis", "settings": "in vivo"}, "[9]": {"experiment": "Lipophilicity, log D of the compound at pH 7.4", "format": "physicochemical", "settings": "buffer"}, "[10]": {"experiment": "Clearance in dog at 0.5 mg/kg, iv", "format": "ADME, organism-based, Canis lupus familiaris", "settings": "in vivo"}, "[11]": {"experiment": "Genotoxicity in Salmonella typhimurium TA98 by mini AMES test", "format": "toxicity", "settings": "salmonella enterica subsp. enterica serovar typhimurium"}, "[12]": {"experiment": "Half life in cynomolgus monkey at 0.013 mg/kg, sc", "format": "ADME, organism-based, Macaca fascicularis", "settings": "in vivo"}, "Cytochrome P450 3A4": {"target": "Cytochrome P450 3A4 (Homo sapiens, UniProt P08684)", "sequence (P08684 whole entry)": "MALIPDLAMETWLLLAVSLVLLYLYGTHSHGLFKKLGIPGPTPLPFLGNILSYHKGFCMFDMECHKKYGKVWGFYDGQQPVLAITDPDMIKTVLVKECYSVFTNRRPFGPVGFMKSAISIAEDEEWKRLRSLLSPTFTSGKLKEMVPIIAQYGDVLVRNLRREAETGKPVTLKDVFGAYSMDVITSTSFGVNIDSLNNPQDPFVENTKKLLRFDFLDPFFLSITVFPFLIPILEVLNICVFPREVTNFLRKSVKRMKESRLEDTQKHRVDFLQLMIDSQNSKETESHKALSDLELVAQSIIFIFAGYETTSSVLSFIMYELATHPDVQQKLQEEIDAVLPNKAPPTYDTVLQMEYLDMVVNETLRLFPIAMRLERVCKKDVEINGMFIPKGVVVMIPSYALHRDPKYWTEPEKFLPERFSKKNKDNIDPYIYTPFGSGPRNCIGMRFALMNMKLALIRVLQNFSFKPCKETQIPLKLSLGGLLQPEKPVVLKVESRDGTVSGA", "experiment": "Inhibition of CYP3A4 (unknown origin)", "format": "ADME"}, "[13]": {"experiment": "Stability of the compound in pH 3 solution at 50 degC assessed as loss of purity after 1 week", "format": "physicochemical", "settings": "read-out: Drug degradation"}, "[14]": {"target": "Amylin receptor AMY1, CALCR/RAMP1 (Homo sapiens) (UniProt P30988+O60894)", "experiment": "Antagonist activity at human amylin-1 receptor", "format": "protein-complex assay"}, "Cytochrome P450 2C8": {"target": "T1, Cytochrome P450 2C8 (Homo sapiens, UniProt P10632)", "T1 sequence (P10632 whole entry)": "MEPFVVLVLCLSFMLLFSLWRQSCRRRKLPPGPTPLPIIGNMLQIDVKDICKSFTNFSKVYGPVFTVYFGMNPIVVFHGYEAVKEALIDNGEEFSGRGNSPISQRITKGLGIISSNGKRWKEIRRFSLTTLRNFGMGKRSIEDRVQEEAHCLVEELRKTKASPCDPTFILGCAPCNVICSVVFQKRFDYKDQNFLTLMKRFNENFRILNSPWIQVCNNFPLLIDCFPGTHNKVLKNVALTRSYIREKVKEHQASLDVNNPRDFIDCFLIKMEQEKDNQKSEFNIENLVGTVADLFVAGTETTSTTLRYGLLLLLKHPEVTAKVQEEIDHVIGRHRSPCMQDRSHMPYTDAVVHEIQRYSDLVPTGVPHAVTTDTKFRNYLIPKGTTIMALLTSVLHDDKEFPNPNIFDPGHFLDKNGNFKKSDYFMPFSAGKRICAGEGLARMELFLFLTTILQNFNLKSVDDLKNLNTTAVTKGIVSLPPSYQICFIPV", "experiment": "Inhibition of CYP2C8 (unknown origin)", "format": "ADME"}, "[15]": {"experiment": "Protein binding in rat plasma by high-throughput dialysis method", "format": "ADME, cell-free", "settings": "read-out: PPB (converted)"}, "Cytochrome P450 1A2": {"target": "T2, Cytochrome P450 1A2 (Homo sapiens, UniProt P05177)", "T2 sequence (P05177 whole entry)": "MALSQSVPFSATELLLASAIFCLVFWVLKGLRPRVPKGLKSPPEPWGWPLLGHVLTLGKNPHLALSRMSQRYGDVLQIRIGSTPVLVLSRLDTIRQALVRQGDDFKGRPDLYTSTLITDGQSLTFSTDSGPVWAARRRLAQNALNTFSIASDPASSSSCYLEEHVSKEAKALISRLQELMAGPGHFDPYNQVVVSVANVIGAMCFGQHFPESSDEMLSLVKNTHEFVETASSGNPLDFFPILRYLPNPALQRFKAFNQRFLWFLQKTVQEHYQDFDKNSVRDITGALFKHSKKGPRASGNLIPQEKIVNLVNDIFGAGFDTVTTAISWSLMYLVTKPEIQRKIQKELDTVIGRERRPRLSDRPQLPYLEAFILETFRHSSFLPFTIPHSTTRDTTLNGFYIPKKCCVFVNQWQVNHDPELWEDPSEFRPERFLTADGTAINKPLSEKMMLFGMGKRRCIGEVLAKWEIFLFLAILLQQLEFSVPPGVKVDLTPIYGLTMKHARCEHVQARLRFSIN", "experiment": "Inhibition of CYP1A2 (unknown origin)", "format": "ADME"}, "[16]": {"experiment": "Solubility of the compound at pH 4 using amorphous form of sample", "format": "physicochemical", "settings": "buffer"}, "[17]": {"experiment": "Half life in rat hepatocytes", "format": "ADME, cell-based, Hepatocyte"}, "[18]": {"experiment": "Volume of distribution at steady state in rat at 2 mg/kg, iv", "format": "ADME, organism-based", "settings": "in vivo, read-out: Vdss"}, "[19]": {"experiment": "Tmax in cynomolgus monkey at 0.5 mg/kg, sc", "format": "ADME, organism-based, Macaca fascicularis", "settings": "in vivo"}, "[20]": {"experiment": "Stability of the compound in pH 8 solution at 50 degC assessed as loss of purity after 1 week", "format": "physicochemical", "settings": "read-out: Drug degradation"}, "[21]": {"experiment": "Half life in human hepatocytes", "format": "ADME, cell-based, Hepatocyte"}, "[22]": {"experiment": "Toxicity in rat assessed as behavioral changes at 0.1 to 1 mg/kg/day, sc administered for 10 days", "format": "organism-based", "settings": "in vivo, 240 h"}, "[23]": {"experiment": "Tmax in rat at 1 mg/kg, sc", "format": "ADME, organism-based", "settings": "in vivo"}, "Cytochrome P450 2D6": {"target": "Cytochrome P450 2D6 (Homo sapiens, UniProt P10635)", "sequence (P10635 whole entry)": "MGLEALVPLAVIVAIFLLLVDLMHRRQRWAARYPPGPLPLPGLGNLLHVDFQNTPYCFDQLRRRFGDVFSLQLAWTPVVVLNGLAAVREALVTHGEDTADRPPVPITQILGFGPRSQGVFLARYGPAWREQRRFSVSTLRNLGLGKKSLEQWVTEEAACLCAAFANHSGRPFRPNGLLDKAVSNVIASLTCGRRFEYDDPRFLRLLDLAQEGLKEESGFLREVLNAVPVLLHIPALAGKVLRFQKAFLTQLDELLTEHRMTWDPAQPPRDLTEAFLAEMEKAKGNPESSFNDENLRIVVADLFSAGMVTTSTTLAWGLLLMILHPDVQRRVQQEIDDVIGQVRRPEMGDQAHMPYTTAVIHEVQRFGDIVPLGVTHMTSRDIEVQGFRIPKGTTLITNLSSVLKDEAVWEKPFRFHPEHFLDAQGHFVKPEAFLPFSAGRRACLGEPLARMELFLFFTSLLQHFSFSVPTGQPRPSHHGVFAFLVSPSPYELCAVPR", "experiment": "Inhibition of CYP2D6 (unknown origin)", "format": "ADME"}, "[24]": {"experiment": "Thermodynamic solubility of the compound at pH 6", "format": "physicochemical", "settings": "buffer, read-out: Therm_solubility"}, "[25]": {"experiment": "Solubility of the compound at pH 8.2 using amorphous form of sample", "format": "physicochemical", "settings": "buffer"}, "[26]": {"experiment": "Oral bioavailability in rat at 1 mg/kg", "format": "ADME, organism-based", "settings": "in vivo"}, "[27]": {"target": "Calcitonin-gene-related peptide receptor, CALCRL/RAMP1 (Homo sapiens, UniProt O60894+Q16602)", "experiment": "Antagonist activity at human CGRP receptor in human SK-N-MC cells assessed as inhibition of CGRP-induced cAMP production preincubated for 30 mins followed by CGRP addition and measured after 30 mins by HTRF assay", "format": "functional, cell-based"}, "[28]": {"experiment": "Half life in dog hepatocytes", "format": "ADME, cell-based, Canis lupus familiaris, Hepatocyte"}, "Cytochrome P450 2C9": {"target": "Cytochrome P450 2C9 (Homo sapiens, UniProt P11712)", "sequence (P11712 whole entry)": "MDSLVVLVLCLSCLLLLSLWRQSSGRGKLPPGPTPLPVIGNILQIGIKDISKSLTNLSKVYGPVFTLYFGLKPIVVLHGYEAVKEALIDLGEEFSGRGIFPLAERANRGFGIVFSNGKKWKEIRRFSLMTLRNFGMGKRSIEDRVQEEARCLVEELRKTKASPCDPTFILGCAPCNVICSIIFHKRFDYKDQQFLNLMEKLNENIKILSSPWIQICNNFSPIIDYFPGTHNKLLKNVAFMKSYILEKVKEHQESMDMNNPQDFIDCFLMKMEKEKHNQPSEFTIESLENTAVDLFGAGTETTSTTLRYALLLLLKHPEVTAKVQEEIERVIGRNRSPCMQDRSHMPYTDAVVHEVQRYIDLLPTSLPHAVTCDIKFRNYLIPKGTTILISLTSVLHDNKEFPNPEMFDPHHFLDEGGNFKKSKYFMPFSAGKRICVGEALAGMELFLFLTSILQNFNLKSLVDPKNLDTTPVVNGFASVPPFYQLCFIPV", "experiment": "Inhibition of CYP2C9 (unknown origin)", "format": "ADME"}, "[29]": {"experiment": "Half life in rat at 2 mg/kg, iv", "format": "ADME, organism-based", "settings": "in vivo"}}, "data": [{"molecule": "Cc1cc(C[C@@H](NC(=O)N2CCC3(CC2)OC(=O)Nc2ncccc23)C(=O)N[C@@H](CC2CCNCC2)C(=O)N2CCN(c3ccncc3)CC2)cc2cn[nH]c12", "note": "[HTL-0022562]", "values": [{"measurement": "fraction unbound", "setting": "[1]", "result": 0.69}, {"measurement": "inhibition at 300 µM", "setting": "hERG (KCNH2)", "result": 6, "unit": "%"}, {"measurement": "AUC(0-inf)", "setting": "[2]", "result": 81, "unit": "ng·h/mL"}, {"measurement": "half-life", "setting": "[3]", "result": "> 5", "unit": "h"}, {"measurement": "Vd", "setting": "[4]", "result": 0.3, "unit": "L/kg"}, {"measurement": "degraded at 168 h", "setting": "[5]", "result": 0.8, "unit": "%"}, {"measurement": "pKb", "setting": "[6]", "result": "< 7"}, {"measurement": "Tmax", "setting": "[7]", "result": 0.8, "unit": "h"}, {"measurement": "bioavailability", "setting": "[8]", "result": 68, "unit": "%"}, {"measurement": "logD", "setting": "[9]", "result": -0.4}, {"measurement": "clearance", "setting": "[10]", "result": 10, "unit": "mL/min/kg"}, {"measurement": "Activity", "setting": "[11]", "result": "Non-Toxic"}, {"measurement": "half-life", "setting": "[12]", "result": 3.5, "unit": "h"}, {"measurement": "IC50", "setting": "Cytochrome P450 3A4", "result": "> 50.1", "unit": "µM"}, {"measurement": "degraded at 168 h", "setting": "[13]", "result": 0.4, "unit": "%"}, {"measurement": "pKb", "setting": "[14]", "result": "< 6.3"}, {"measurement": "IC50", "setting": "Cytochrome P450 2C8", "result": "> 50.1", "unit": "µM"}, {"measurement": "fraction unbound", "setting": "[15]", "result": 0.59}, {"measurement": "IC50", "setting": "Cytochrome P450 1A2", "result": "> 50.1", "unit": "µM"}, {"measurement": "solubility", "setting": "[16]", "result": 174, "unit": "mg/mL"}, {"measurement": "half-life", "setting": "[17]", "result": "> 5", "unit": "h"}, {"measurement": "Vd", "setting": "[18]", "result": 1, "unit": "L/kg"}, {"measurement": "Tmax", "setting": "[19]", "result": 0.8, "unit": "h"}, {"measurement": "degraded at 168 h", "setting": "[20]", "result": 4.5, "unit": "%"}, {"measurement": "half-life", "setting": "[21]", "result": "> 5", "unit": "h"}, {"measurement": "Activity", "setting": "[22]", "result": "Non-Toxic"}, {"measurement": "Tmax", "setting": "[23]", "result": 0.7, "unit": "h"}, {"measurement": "IC50", "setting": "Cytochrome P450 2D6", "result": "> 50.1", "unit": "µM"}, {"measurement": "solubility thermodynamic", "setting": "[24]", "result": 2920, "unit": "µM"}, {"measurement": "solubility", "setting": "[25]", "result": 9, "unit": "mg/mL"}, {"measurement": "bioavailability", "setting": "[26]", "result": 123, "unit": "%"}, {"measurement": "pKb", "setting": "[27]", "result": 10.2}, {"measurement": "half-life", "setting": "[28]", "result": "> 5", "unit": "h"}, {"measurement": "IC50", "setting": "Cytochrome P450 2C9", "result": "> 50.1", "unit": "µM"}, {"measurement": "half-life", "setting": "[29]", "result": 4.7, "unit": "h"}]}]}
